Experimental data reported in patent publication US20230149507A1, “TREATMENT OF ALT CANCERS” (INSTITUTO DE MEDICINA MOLECULAR JOÃO LOBO ANTUNES, priority 2019, published 2023).

How the values were obtained:
[1] = test system: U-2 OS cells; assay: APB frequency and APB telomere intensity in cells overexpressing FANCM variants; assay type: cell-based, human; details: overexpression
Description: (a) Western immunoblotting of stable wild-type FANCM (FANCM+) or FANCM mutant overexpression in U-2 OS cells. […] (b) TRF analysis of U-2 OS cells overexpressing wild-type (FANCM+) or FANCM mutants. Gels were hybridized under native and denatured conditions with radiolabelled telomeric probes to detect the C-strand and G-strand. (c) Tukey boxplots of APB frequency (top panel) and mean APB telomere intensity (bottom panel) in U-2 OS cells overexpressing wild-type (FANCM+) or FANCM mutants. Out of 3 experiments, n=150 cells scored per variant, *p<0.05, **p<0.005, Mann-Whitney test.
FIG. 23. Defects in ALT phenotype suppression are exacerbated by overexpression of a double-mutant (DM) FANCM, in which both the MM2 domain (FF>AA) and the translocase domain (K117R) of FANCM are mutated. (a) Representative dot blots and quantitation of C-circle assays in U-2 OS cells stably overexpressing wild-type (WT) or FANCM domain mutants (K117R, FF>AA; DM). C-circles were normalized to the mean of empty vector control (EV). Error bars represent mean±SEM from n=3 experiments, *p<0.05, **p<0.005, Student's t-test. (b) Quantitation of APB frequency in U-2 OS cells overexpressing wild-type (WT) or FANCM mutants. Scatterplot bars represent the mean±SEM. Out of three experiments, n=150 cells were scored for each mutant, **p<0.005, Mann-Whitney test. (c) Quantitation of metaphase-TIFs in U-2 OS cells stably overexpressing wild-type (WT) or FANCM mutants. Scatterplot bars represent the mean±SEM. Out of three experiments, n=120 metaphases scored for each mutant, *p<0.05, **p<0.005, Mann-Whitney test. All statistical comparisons are relative to EV control.
Empty vector and wild-type FANCM (pCMV6-Myc-DDK) constructs were obtained from Origene Technologies. Wild type FANCM (SEQ ID NO: 2) and FANCM mutants (SEQ ID NOs: 19 to 28) were cloned into the pLenti-C-Myc-DDK-IRES-Neo backbone (Origene Technologies) by restriction enzyme subcloning of gene blocks synthesized by Integrated DNA Technologies (IDT). Lentivirus was produced by the Vector and Genome Engineering Facility (Children's Medical Research Institute). For stable overexpression, cells were transduced with lentivirus, allowed to recover for 24 h, and subject to G418 selection. Cells were maintained in G418 to ensure sustained overexpression.
Indirect IF and telomere FISH were performed on both interphase nuclei and metaphase spreads. For interphase IF experiments, cells were grown on coverslips or LabTek chamber slides (Thermo Scientific). Slides were prepared as described in Sobinoff et al., 2017. Cells on coverslips were washed twice with PBS, permeabilized with KCM buffer (120 mM KCl, 20 mM NaCl, 10 mM Tris pH 7.5, 0.1% Triton), washed again with PBST and PBS, then fixed with ice-cold 4% formaldehyde PBS solution at room temperature for 10 min. Coverslips were blocked with antibody-dilution buffer (20 mM Tris-HCl, pH 7.5, 2% (w/v) BSA, 0.2% (v/v) fish gelatin, 150 mM NaCl, 0.1% (v/v) Triton X-100 and 0.1% (w/v) sodium azide) and 0.1 mg/ml RNaseA for 30 min at 37° C. Cells were incubated with primary antibodies (Supplementary Table 1) for 1 h at 37° C. or 2 h at room temperature, then incubated with 1:1,000 dilution of appropriate Alexa Fluor conjugated secondary antibodies (Thermo Scientific). Coverslips were rinsed with PBS then fixed with 4% (v/v) formaldehyde at room temperature prior to telomere FISH. Coverslips were subjected to a graded ethanol series (75% for 2 min, 85% for 2 min, and 100% for 2 min) and allowed to air-dry. […]

[2] = test system: U-2 OS cells; assay: Single molecule analysis of telomeric extension events (SMAT) in cells overexpressing FANCM variants; assay type: cell-based, human; details: overexpression
Description: (a) Schematic of FANCM domain interactions, mutations or deletions. For clarity, domains have been color coded by functional role (bottom panel). (b) Quantitation of metaphase-TIFs in U-2 OS cells stably overexpressing wild-type (FANCM+) or FANCM mutants. Scatterplot bars represent the mean±SEM. Out of 3 experiments, n≥110 metaphases scored for each mutant, *p<0.05, **p<0.005, Mann-Whitney test. (c) Quantitation of fragile telomeres in U-2 OS cells stably overexpressing wild-type (FANCM+) or FANCM mutants. Scatterplot bars represent the mean±SEM. Out of 3 experiments, n>100 metaphases scored for each mutant, *p<0.05, **p<0.005, Mann-Whitney test. (d) Representative dot blots and quantitation of C-circle assays in U-2 OS cells stably overexpressing wild-type (FANCM+) or FANCM domain mutants. C-circles were normalized to the mean of vector control. Error bars represent mean±SEM from n=3 experiments, *p<0.05, **p<0.005, Student's t-test. […]
Cells were labelled with 100 μM CIdU for 5 h prior to harvesting by trypsinization. […] Halogenated nucleotides were detected with a rat anti-CldU monoclonal antibody (Accurate) and Alexa Fluor 488-conjugated goat anti-rat antibody (Molecular Probes). Telomere fibers were detected on a Zeiss Axio Imager microscope with ApoTome module and analyzed with Zen software (Zeiss).

Row | Substance | intensity of telomeric signal within APBs [1] | number of APBs [1] | number of telomere extension events [2]
1 | K117R: FANCM mutant (SEQ ID NO: 20) substituted at K117R, DEAH domain disrupted | significant increase | significant increase | 
2 | FF>AA: FANCM mutant (SEQ ID NO: 25), double substitution F1232A/F1236A within the MM2 domain | significant increase | significant increase | significant increase in the number of extension events
